Reference: paper PMC9243584, “Population Pharmacokinetics of Colistin Sulfate in Critically Ill Patients: Exposure and Clinical Efficacy” (Frontiers in Pharmacology, 2022)
Structures can show the parent of a compound that is named as a salt. Where two headings read alike, the source gives them in different places. Positions of bridges follow the written chain, without caps; N, C: chain ends. Non-standard residues stand in square brackets, D forms with d. Residues, ends and D or L forms follow the SMILES beside them. *: point of attachment. X1 = CC[C@H](C)CCCCC(=O)*; Dab = NCC[C@H](N)C(=O)O

Columns and labels:
[1] = tested on: isolates with lower MIC values (≤2 μg/ml); conditions: isolates with MIC ≤2 μg/ml for both compounds; ref Sader et al., 2015; cited from earlier work
Description: (§1) It should be noted that the currently used colistin sulfate in China was reapproved for clinical use by the Chinese National Medical Products Administration (NPMA) in 2018. Thus, modern pharmacological data including the clinical efficacy and side effects have not been reported. […] The clinical efficacy of colistin sulfate in the current study was similar to the efficacy of polymyxin B reported by [Lu et al. (2021]), who performed a retrospec ...

[2] = critically ill patients, ref Cheah et al., 2015, cited from earlier work
[3] = Population pharmacokinetic modeling (NONMEM) of intravenous colistin sulfate from plasma concentrations in critically ill patients; type: in vivo, human
Description: This retrospective, observational study was designed in accordance with the Declaration of Helsinki and was approved by the Ethical Committees of the First Affiliated Hospital of Wenzhou Medical University, China ([2022]036). Adult patients receiving colistin sulfate for confirmed multi-resistant Gram-negative bacterial infections from January 2020 to December 2021 at the First Affiliated Hospital of Wenzhou Medical University were selected. The inclusion criteria were as follows: a) ≥18 years of age; b) receiving colistin sulfate (Shanghai New Asia Pharmaceuticals, Shanghai, China) for at least 3 days; and c) at least one plasma concentration of colistin was collected.
The decision to administer colistin sulfate and its dosing regimen (dose amount, dosing interval, ways of administration, and treatment duration) was made by the attending physician. A loading dose of 1 million IU and a daily dose of 1.5 million IU divided into 2–3 times (maintenance dose) administered using an intravenous drip was recommended by the label sheet of colistin sulfate. In addition, for patients with pulmonary infection, inhalation of colistin sulfate (250,000 IU q12 h) was combinedly used; for patients with intracranial infection, colistin sulfate (50,000 IU q24 h) administered by the intraventricular/intrathecal (IVT/IT) route was combinedly used.
Plasma samples of colistin sulfate were collected after reaching the steady-state (attained after at least six doses). Dates and exact time of colistin sulfate administration and plasma sample collection were able to be indexed from the medical records. Plasma samples were separated by centrifugation for 5 min at 15,000 rpm immediately after sampling. The quantification of plasma concentration of colistin sulfate was performed using a validated high-performance liquid chromatography-tandem mass spectrometry assay ([Gobin et al., 2010]). The calibration ranges for colistin were 0.1–20 μg/ml. The method validations including calibration curve, selectivity, accuracy, precision, matrix effect, recovery, and stability met the requirement of FDA principles.
PopPK analysis was performed using the nonlinear mixed-effects modeling program NONMEM (version 7.4, Icon Development Solutions, Ellicott City, MD, USA) and Pirana (version 2.9.7). R (version 3.6.0) and Xpose (version 4.3.2) software packages were applied to generate diagnostic plots.
One- and two-compartment structural models with first-order elimination were explored for the concentration–time profiles of colistin sulfate. Between-subject variability (BSV) was assessed using an exponential function. Residual variability was assessed using additive, proportional, or combined (additive plus proportional) error models. The base model was selected based on the visual inspection of diagnostic plots and goodness-of-fit criteria, including precision and plausibility of parameter estimation and improvement of the objective function value (OFV).
Relationships between individual empirical Bayesian estimates of PK parameters and patient covariates were examined visually. Covariates were included using a stepwise forward selection process until no further decrease in OFV was observed. All of the significant covariates were then incorporated into the basic model to construct a full model. The included covariates were further assessed using backward elimination. The additional criterion for retaining the covariate in the final model was the decrease in the unexplained BSV and increase in PK parameter estimate precision.
Goodness-of-fit plots, nonparametric bootstrap, and visual predictive check were performed to evaluate the final model and parameter estimates. A nonparametric bootstrap procedure was conducted to assess the performance and stability of the final model. Random sampling with replacement was utilized to generate 1,000 replicate datasets using the individual as the sampling unit. […]

[4] = Acute kidney injury (RIFLE criteria) and colistin sulfate-related nephrotoxicity (Naranjo criteria); type: in vivo, human; conditions: 42 patients, not considered colistin's nephrotoxicity by Naranjo criteria
Protocol: Acute kidney injury (AKI) during the treatment of colistin sulfate was assessed using RIFLE criteria. AKI was defined as a 1.5-fold or more increase in serum creatinine and/or a decrease in the glomerular filtration rate (GFR) of 25% or more ([Han et al., 2022]). The definition of nephrotoxicity caused by colistin sulfate was further confirmed using the Naranjo criteria.

CRO = conditions: retrospective study, Chinese patients with CRO infections, median daily dose 1.72 mg/kg; ref Lu et al. (2021); cited from earlier work
Description: as §1

[5] = parameters: method as in 2 sources, one per row (each row's own in cited_ref): ref Yu et al., 2021 ||| ref Wang et al., 2020; conditions: cited from earlier work
[6] = ref Han et al., 2022; cited from earlier work
Description: as §1, with “... || Nephrotoxicity is the main toxicity of concern with the treatment of polymyxins. However, it is amazing that no patient developed colistin sulfate-related nephrotoxicity in our study. […] Considering that polymyxin B and colistin have very similar molecular structures and PK characteristics, it is reasonable to conclude that the safety threshold of nephrotoxicity of colistin sulfate approaches that of polymyxin B. In the current study, most patient ...” for “...”

Row | Molecule | potency compared with polymyxin B [1] | plasma unbound fraction [2] | plasma unbound fraction ([2]; listed as colistin) | CrCL on CL (θ1) ([3]; final model, covariate coefficient in CL = 0.994 + 0.525×CrCL/66.47) | TVV (typical value of volume of distribution) ([3]; final model, one-compartment) [L] | TVCL (typical value of clearance) ([3]; final model, one-compartment, CL = 0.994 + 0.525×CrCL/66.47) [L/h] | clearance ([3]; human, plasma, iv, base model (Table S1), read-out: TVCL (converted)) [mL/min] | Vd ([3]; human, plasma, iv, base model (Table S1), read-out: TVV) [L] | Vd ([3]; human, plasma, iv, final model, one-compartment, read-out: TVV (typical value of volume of distribution)) [L] | clearance ([3]; human, plasma, iv, mean ± SD across all 42 patients, SD, read-out: CL, individual empirical Bayesian estimate (converted)) [mL/min] | AUC(0-t) ([3]; human, plasma, iv, mean ± SD, MAP Bayesian estimate per patient with the final PK model, SD, read-out: AUC (AUC0-24 at steady state, AUC0-24,ss)) [ng·h/mL] | patients who developed AKI during the treatment [4] | patients who achieved clinical success (CRO) [%] | median CL ([5]; Chinese adult patients, ref Wang et al., 2020) [L/h] | CL ([5]; mean ± SD, adult critically ill patients, 112 concentrations from 32 patients, ref Yu et al., 2021, SD) [L/h] | V ([5]; one-compartment model, adult critically ill patients, ref Yu et al., 2021) [L] | Cmin to prevent polymyxin B-related nephrotoxicity [6]
1 | CC[C@H](C)CCCCC(=O)N[C@@H](CCN)C(=O)N[C@H](C(=O)N[C@@H](CCN)C(=O)N[C@H]1CCNC(=O)[C@H]([C@@H](C)O)NC(=O)[C@H](CCN)NC(=O)[C@H](CCN)NC(=O)[C@H](CC(C)C)NC(=O)[C@@H](CC(C)C)NC(=O)[C@H](CCN)NC1=O)[C@@H](C)O [colistin sulfate] (X1-[Dab]T[Dab][Dab][Dab][dL]L[Dab][Dab]T; lactam 4-C) | slightly greater potency than polymyxin B | 0.5 | about 0.5 | 0.525 | 20.7 | 0.994 | 27.2 | 20.6 | 20.7 | 29 | 39400 ± 14500 | two | – | – | – | – | –
2 | polymyxin B sulfate | – | – | – | – | – | – | – | – | – | – | – | – | 57.6 | 1.78 | 1.75 | 20.5 | below 3.13 mg/L
